Values joined by “and” are separate entries in the source; they are usually repeats but may differ in a detail not shown here. Identical values can stand only once.
How the values were obtained:
[1] = molecular target: T1, POS-1 (Caenorhabditis elegans, UniProt G5EF15); experiment: Fluorescence polarization screening of POS-1 binding to fluorescein-labeled BMF018 RNA; conditions: for remaining activity at 192 µM: 192 μM test compound, score = polarization relative to no-drug and no-protein controls, 0.25 = 75% inhibition, lowest score = greatest inhibition, read-out: POS-1 score; for IC50: further screening as described above (fluorescence polarization), dose response
T1 construct: 6-his tag (N); made in house; host or cells: E. coli BL21 (DE3) Gold
T1 sequence (G5EF15 80-180): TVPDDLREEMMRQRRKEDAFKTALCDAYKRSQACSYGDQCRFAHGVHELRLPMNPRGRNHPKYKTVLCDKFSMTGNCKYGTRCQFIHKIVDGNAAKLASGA

[2] = molecular target: T1, POS-1; experiment: Dose response gel shift assay, POS-1 with MEX-3 UTR fragment RNA; assay type: binding; conditions: 120 nM POS-1, 2-3 nM fluorescein labeled MEX-3 UTR fragment RNA
Description: (§1) A further dose response assay was performed on select compounds of the invention as described below. A sub-saturating concentration of MEX-5 or POS-1 (120 nM) was equilibrated with limiting fluorescein labeled RNA (2-3 nM, TCR2 RNA or MEX-3 UTR fragment RNA respectively) in the presence of varying concentrations of compound. Following equilibration, the reactions were loaded onto a 5% slab polyacrylamide gel and subjected to electrophoresis for about 1 hour to separate protein-RNA complex from free RNA. The gel was scanned on a FUJI FLA-5000 imager, and the fraction of bound RNA determined by dividing the intensity of the bound RNA by the intensity of the bound RNA plus the free RNA. The […] was plotted as a function of compound concentration and fit to a sigmoidal dose response function in order to determine the IC50, the concentration that gives half maximal inhibition.

[3] = tested on: Caenorhabditis elegans N2 strain worms; experiment: C. elegans viability/sterility assay (gonad microinjection); assay type: in vivo
Description: Young adult worms with a single row of embryos were selected for microinjection. Each worm was mounted on a dried agarose padded coverslip in halocarbon oil. Varying concentrations of compound, or a DMSO control, were microinjected into each gonad arm of the worm using an inverted microscope with DIC optics. Injected worms were then allowed to recover for 2-3 hours at 15° C. Approximately 10-40 worms were injected per compound tested. Individual worms that survived microinjection were singled out onto new NGM agar plates and allowed to recover overnight at 15° C. The plates were moved to room temperature the next morning. At the end of the day, the adult worm was transferred to a new plate. The embryos laid on each plate were monitored for hatching and inspected for unusual phenotypes. Nematode fertility was estimated by counting the total number of progeny on both plates. Viability was estimated by monitoring the extent of hatching.

[4] = molecular target: T2, MEX-5 (Caenorhabditis elegans, UniProt Q9XUB2); experiment: Dose response gel shift assay, MEX-5 with TCR2 RNA; assay type: binding; conditions: 120 nM MEX-5, 2-3 nM fluorescein labeled TCR2 RNA
T2 construct: The fragment of mex-5 containing the TZF domain (amino acids 236-350) was amplified; made in house; host or cells: Escherichia coli JM109
T2 sequence (Q9XUB2 236-350): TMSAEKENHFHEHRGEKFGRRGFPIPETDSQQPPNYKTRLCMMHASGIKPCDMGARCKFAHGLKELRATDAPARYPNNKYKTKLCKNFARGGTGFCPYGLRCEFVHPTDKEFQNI
Description: as §1

[5] = molecular target: T2, MEX-5; experiment: Fluorescence polarization screening of MEX-5 binding to fluorescein-labeled TCR2 RNA; conditions: for remaining activity at 192 µM: 192 μM test compound, score = polarization relative to no-drug and no-protein controls, 0.25 = 75% inhibition, lowest score = greatest inhibition, read-out: MEX-5 score; for IC50: further screening as described above (fluorescence polarization), dose response
How it was run: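 Fluorescence polarization of 2 nM 3′-fluorescein-labelled TCR2 RNA bound by 120 nM MBP-MEX-5 TZF domain (aa 236–350), at sub-saturating binding. Test compounds at 192 μM in 50 mM Tris-HCl pH 8.0, 100 mM NaCl, 0.01% IGEPAL, 0.01 mg/mL yeast tRNA, 100 μM Zn(OAc)2; no-protein and no-compound controls.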

[6] = tested on: MEX-3; experiment: Fluorescence polarization screening of MEX-3 binding to fluorescein-labeled SEQ 14 RNA; conditions: 192 μM test compound; 80 nM MBP-MEX-3, no zinc acetate; lowest score = greatest inhibition
[7] = count per individual injected worm (Worm No. 1-6), Day 2

Compound	remaining activity at 192 µM [1]	IC50 [1]	IC50 [2]	Day 1 Hatchlings ([3]; count per individual injected worm (Worm No. 1-6), Day 1)	Day 2 Embryos [3, 7]	Day 2 Hatchlings [3, 7]	Day 1 Embryos ([3]; count per individual injected worm (Worm No. 1-6), unhatched embryos on plate, Day 1)	Effect on worm fertility ([3]; microinjection into each gonad arm, compared with DMSO controls)	IC50 [4]	remaining activity at 192 µM [5]	IC50 [5]	MEX-3 score [6]
COc1nnc(-c2ccc(C)c(S(=O)(=O)NCC3CCCO3)c2)c2ccccc12 (stereo not drawn) [DD]	7.5%	300 µM	260 µM	–	–	–	–	–	–	–	–	–
COc1ccc(S(=O)(=O)Nc2ccccc2NS(=O)(=O)c2ccc(OC)cc2)cc1 [E]	-1.62%	0.32 µM	0.17 µM	11 and 34 and 2 and 6 and 4 and 67	0	0	1 and 0 (4×) and 2	may sterilize worms at a stage prior to fertilization	2 µM	-1.07%	1.5 µM	–
O=C(O)c1ccc(NC(=S)NC(=O)c2ccc(I)cc2)cc1 [AE]	3.61%	–	–	–	–	–	–	–	–	8.11%	–	0.1624
CCS(=O)(=O)Nc1ccccc1NS(=O)(=O)CC [BR]	–	820 µM	150 µM	–	–	–	–	–	78 µM	19.9%	39 µM	–
Sc1nnc(COc2cccc3ccccc23)n1-c1ccccc1 [BO]	–	16 µM	33 µM	–	–	–	–	–	120 µM	19%	75 µM	–
CC(=O)Oc1ccccc1-c1nc2s/c(=C3\C(=O)N(CC(N)=O)c4ccccc43)c(=O)n2n1 [C]	-2.48%	7 µM	5.1 µM	–	–	–	–	–	9.5 µM	-2.09%	33 µM	–

Reference: patent US8962244B2, “Compounds for modulating RNA binding proteins and uses therefor” (University of Massachusetts, priority 2009, dated 2015)
